US7947734B2, “Substituted para-trifluoromethyl phenylate compounds and its preparation and use thereof” (Sinochem Corporation, priority 2005, dated 2011)

Assays:
[1] = tested on: Carmine spider mite (Tetranychus cinnabarinus); assay: Acaricidal activity, Airbrush spraying tower, mortality
Procedure: (§1) Technical samples were dissolved in acetone/methanol (1:1) and diluted to required concentration with water containing 0.1% of tween 80.
(§2) Armyworm (Leucania separata), diamondback moth (Plutella xylostella) culex mosquitoes (Culex pippens pallens), Myzus persicae (Myzus persicae and Carmine spider mite (Tetranychus cinnabarinus) were treated with Airbrush spraying tower, and culex mosquito was treated with dipping culture method. The pressure of Airbrush spraying tower was 10 psi (about 0.7 kg/cm2) and the amount of spraying was 0.5 ml. Mortality investigation of test insects was carried out 2 to 3 days after the treatment.

[2] = tested on: wheat powdery mildew (Blumeria graminis); assay: Fungicidal protective activity against wheat powdery mildew on potted plants; assay type: in vivo
[3] = tested on: wheat powdery mildew (Blumeria graminis); assay: Therapy activity against wheat powdery mildew on potted plants; assay type: in vivo
[4] = tested on: cucumber downy mildew (Pseudoperonospora cubenis); assay: Fungicidal protective activity against cucumber downy mildew on potted plants; assay type: in vivo; conditions: 400 mg/L
Myzus persicae = assay: Insecticidal activity, Airbrush spraying tower, mortality; conditions: 600 mg/L
Procedure: as §1, §2

[5] = 0.19 mg/L, wheat powdery mildew
[6] = 0.39 mg/L, wheat powdery mildew
[7] = 0.78 mg/L, wheat powdery mildew
[8] = 1.56 mg/L, wheat powdery mildew
[9] = 3.13 mg/L, wheat powdery mildew
[10] = 6.25 mg/L, wheat powdery mildew
[11] = 12.5 mg/L, wheat powdery mildew

| Structure (SMILES) | control against wheat powdery mildew ([2]; 200 mg/L) | control against wheat powdery mildew ([2]; 400 mg/L) | control against cucumber downy mildew [4] | Protective activity % one day [2, 5] | Protective activity % one day [2, 6] | Protective activity % one day [2, 7] | Protective activity % one day [2, 8] | Protective activity % one day [2, 9] | Protective activity % one day [2, 10] | control against wheat powdery mildew ([2]; 12.5 mg/L) | Protective activity % one day [2, 11] | Protective activity % one day ([2]; 25 mg/L, wheat powdery mildew) | also measured |
| --- | --- | --- | --- | --- | --- | --- | --- | --- | --- | --- | --- | --- | --- |
| CC(C)(C)c1ccc(CSc2cnn(C(C)(C)C)c(=O)c2Cl)cc1 [Pyridaben, reference compound] | – | – | – | – | – | – | – | – | – | – | – | – | control of Carmine spider mite ([1]; 10 mg/L): 95% |
| COC(=O)N(OC)c1ccccc1COc1ccc(C(F)(F)F)cc1Cl [compound 10] | more than 95% | 100% | – | – | – | – | – | – | – | – | – | – | – |
| COC=C(C(=O)OC)c1ccccc1COc1ccc(C(F)(F)F)cc1Cl [compound 1] | 100% | 100% | 100% | 30% | 55% | 90% | 100% | 100% | 100% | 100% | 100% | 100% | Therapy activity % 3 days ([3]; 1.56 mg/L): 50%; Therapy activity % 3 days ([3]; 3.125 mg/L): 80%; Therapy activity % 3 days ([3]; 6.25 mg/L): 100%; Therapy activity % 3 days ([3]; 12.5 mg/L): 100%; control of Carmine spider mite ([1]; 10 mg/L): 95%; control of Carmine spider mite ([1]; 50 mg/L): 100%; control of Carmine spider mite ([1]; 150 mg/L): 100%; control of Carmine spider mite ([1]; 600 mg/L): 100%; control of Myzus persicae (Myzus persicae): 100% |
| COC=C(C(=O)OC)c1ccccc1Oc1cc(Oc2ccc(C(F)(F)F)cc2Cl)ncn1 [compound 16] | – | 100% | – | – | – | – | – | – | – | – | – | – | – |
| CON=C(C(=O)OC)c1ccccc1COc1ccc(C(F)(F)F)cc1Cl [compound 4] | 100% | 100% | 100% | 70% | 90% | 98% | 100% | 100% | 100% | 100% | 100% | 100% | control of Carmine spider mite ([1]; 600 mg/L): 100% |
| CO/N=C(/C(=O)OC)c1ccccc1COc1ccccc1C [kresoxin-methyl, reference compound] | – | – | – | – | – | – | – | – | – | – | – | – | inhibition at 1.56 µg/mL ([3]; Blumeria graminis, 72 h, 1.56 mg/L, read-out: Therapy activity % 3 days): 10%; inhibition at 3.125 µg/mL ([3]; Blumeria graminis, 72 h, 3.125 mg/L, read-out: Therapy activity % 3 days): 15%; inhibition at 6.25 µg/mL ([3]; Blumeria graminis, 72 h, 6.25 mg/L, read-out: Therapy activity % 3 days): 20%; inhibition at 12.5 µg/mL ([3]; Blumeria graminis, 72 h, 12.5 mg/L, read-out: Therapy activity % 3 days): 100%; inhibition at 0.19 µg/mL ([2]; Blumeria graminis, 24 h, 0.19 mg/L, wheat powdery mildew, read-out: Protective activity % one day): 0%; inhibition at 0.39 µg/mL ([2]; Blumeria graminis, 24 h, 0.39 mg/L, wheat powdery mildew, read-out: Protective activity % one day): 0%; inhibition at 0.78 µg/mL ([2]; Blumeria graminis, 24 h, 0.78 mg/L, wheat powdery mildew, read-out: Protective activity % one day): 15%; inhibition at 1.56 µg/mL ([2]; Blumeria graminis, 24 h, 1.56 mg/L, wheat powdery mildew, read-out: Protective activity % one day): 40%; inhibition at 3.13 µg/mL ([2]; Blumeria graminis, 24 h, 3.13 mg/L, wheat powdery mildew, read-out: Protective activity % one day): 70%; inhibition at 6.25 µg/mL ([2]; Blumeria graminis, 24 h, 6.25 mg/L, wheat powdery mildew, read-out: Protective activity % one day): 98%; inhibition at 12.5 µg/mL ([2]; Blumeria graminis, 24 h, 12.5 mg/L, wheat powdery mildew, read-out: Protective activity % one day): 100%; inhibition at 25 µg/mL ([2]; Blumeria graminis, 24 h, 25 mg/L, wheat powdery mildew, read-out: Protective activity % one day): 100% |
| CNC(=O)C(=NOC)c1ccccc1COc1ccc(C(F)(F)F)cc1Cl [compound 7] | 100% | 100% | 100% | 50% | 85% | 90% | 100% | 100% | 100% | 100% | 100% | 100% | – |
